# Reference: US11759461B2, “Small molecule inhibitors of cancer stem cells and mesenchymal cancer types” (The Scripps Research Institute, priority 2017, dated 2023)
# pIC50: −log10 of the molar value.
# Test system: FOXC2-expressing HMLER cells
# Experiment: Cell Titer Glo viability of FOXC2-HMLER cells (high throughput screen and 10-point response)
# Assay type: cell-based
# Settings: Homo sapiens; scored relative to parent compound 1; 72 hours; read-out: Activity Score, inhibition of FOXC2-expressing HMLER cells by Formula I compounds
# Procedure: For high throughput screening, FOXC2-HMLER and HMLER cells were plated at 10^3 cells per well in white 384-well plates in 50 μL of MEGM medium (Lonza). Cells were allowed to attach for one hour before compound was transferred to each well as a DMSO solution using a 100 nL pintool head affixed to a PerkinElmer FX instrument. After 72-hour incubation, 30 μL of a Cell Titer Glo solution (diluted 1:6 in water, Promega) was dispensed into each well and luminance values were recorded using an Envision plate reader. […] All other miniaturized, selective viability experiments were performed as above using the indicated growth medium.
# More specifically, in the high throughput screening assay above, each cell line was plated at 1,000 cells per well in 384-well plates, treated for 72 hours with 2 μM of test compound, and the viability of each line was determined in parallel by Cell Titer Glo (Promega) luminance measurements.
row,Structure (SMILES),pIC50
1,CC1CC(C)CN(c2cnnc3c(Cl)cccc23)C1 (stereo not drawn) [Compound 1A],4.70 to 6.00
2,Cc1ccc(-c2cc3c(N4CCN(c5ccccc5)CC4)nccn3n2)cc1C [Compound 1B],4.70 to 6.00
3,Cc1ccc(N2CCN(c3nccn4nc(-c5ccccc5)cc34)CC2)cc1 [Compound 1C],4.70 to 6.00
4,Clc1cccc(N2CCN(c3cnc4ccccc4n3)CC2)c1 [Compound 1D],4.70 to 6.00
5,Clc1ccc(N2CCN(c3ccccc3Cl)CC2)nn1 [Compound 1E],< 4.70
6,COc1ccc(N2CCN(c3nccn4nc(-c5ccc(Cl)cc5)cc34)CC2)cc1 [Compound 1F],< 4.70
7,Clc1ccc2c(N3CCNCC3)ccnc2c1 [Compound 1G],< 4.70
8,Clc1ccc(N2CCN(c3cnnc4c(Cl)cccc34)CC2)cc1Cl [Compound 1SRAA],4.70 to 6.00
9,Clc1ccc(Cl)c(N2CCN(c3cnnc4c(Cl)cccc34)CC2)c1 [Compound 1SRAB],4.70 to 6.00
10,FC(F)(F)Oc1cccc(N2CCN(c3cnnc4c(Cl)cccc34)CC2)c1 [Compound 1SRAC],4.70 to 6.00
11,Clc1cccc(N2CCN(c3cnnc4c(Cl)cccc34)CC2)n1 [Compound 1SRAD],4.70 to 6.00
12,Clc1nccc(N2CCN(c3cnnc4c(Cl)cccc34)CC2)n1 [Compound 1SRAE],< 4.70
13,Clc1cncc(N2CCN(c3cnnc4c(Cl)cccc34)CC2)n1 [Compound 1SRAF],< 4.70
14,Fc1cc(Cl)cc(N2CCN(c3cnnc4c(Cl)cccc34)CC2)c1 [Compound 1SRAG],> 6.00
15,COc1cc(Cl)cc(N2CCN(c3cnnc4c(Cl)cccc34)CC2)c1 [Compound 1SRAH],> 6.63
16,Cc1cc(Cl)cc(N2CCN(c3cnnc4c(Cl)cccc34)CC2)c1 [Compound 1SRAI],> 6.00
17,FC(F)(F)c1cc(Cl)cc(N2CCN(c3cnnc4c(Cl)cccc34)CC2)c1 [Compound 1SRAJ],4.70 to 6.00
18,N#Cc1cc(Cl)cc(N2CCN(c3cnnc4c(Cl)cccc34)CC2)c1 [Compound 1SRAK],> 6.00
19,Cc1c(Cl)cc(N2CCN(c3cnnc4c(Cl)cccc34)CC2)cc1Cl [Compound 1SRAL],4.70 to 6.00

row,Structure (SMILES),pIC50
1,Cc1c(S(=O)(=O)N2CCN(c3cnnc4c(Cl)cccc34)CC2)cnn1C(F)F [Compound 1SRAM],< 4.70
2,Clc1cc(Cl)cc(N2C[C@@H]3C[C@H]2CN3c2cnnc3c(Cl)cccc23)c1 [Compound 1SRAN],> 6.00
3,Clc1cc(Cl)cc(N2CCN(c3cnnc4c(Cl)cccc34)CC2)c1 [Compound 1SRH],> 6.63
4,Fc1c(Cl)cc(N2CCN(c3cnnc4c(Cl)cccc34)CC2)cc1Cl [Compound 1SRI],4.70 to 6.00
5,Fc1ccc(N2CCN(c3cnnc4c(Cl)cccc34)CC2)cc1Cl [Compound 1SRJ],4.70 to 6.00
6,Fc1c(Cl)cccc1N1CCN(c2cnnc3c(Cl)cccc23)CC1 [Compound 1SRK],4.70 to 6.00
7,CC1CN(c2cc(Cl)cc(Cl)c2)CCN1c1cnnc2c(Cl)cccc12 (stereo not drawn) [Compound 1SRL],> 6.00
8,CC1CN(c2cnnc3c(Cl)cccc23)CCN1c1cc(Cl)cc(Cl)c1 (stereo not drawn) [Compound 1SRM],> 6.00
9,Clc1cc(Cl)cc(N2CCN(c3cnnc4ccccc34)CC2)c1 [Compound 1SRN],> 6.00
10,Fc1cccc(N2CCN(c3cnnc4c(Cl)cccc34)CC2)c1 [Compound 1SRO],4.70 to 6.00
11,FC(F)(F)c1cccc(N2CCN(c3cnnc4c(Cl)cccc34)CC2)c1 [Compound 1SRP],4.70 to 6.00
12,FC(F)(F)Sc1cccc(N2CCN(c3cnnc4c(Cl)cccc34)CC2)c1 [Compound 1SRQ],4.70 to 6.00
13,COc1cccc(N2CCN(c3cnnc4c(Cl)cccc34)CC2)c1 [Compound 1SRT],> 6.00
14,NC(=O)c1cccc(N2CCN(c3cnnc4c(Cl)cccc34)CC2)c1 [Compound 1SRV],4.70 to 6.00
15,Clc1ccccc1N1CCN(c2cnnc3c(Cl)cccc23)CC1 [Compound 1SRW],4.70 to 6.00
16,Clc1cccc2c(N3CCN(c4ccccc4)CC3)cnnc12 [Compound 1SRX],< 4.70
17,Clc1ccc(N2CCN(c3cnnc4c(Cl)cccc34)CC2)cc1 [Compound 1SRY],< 4.70
18,Clc1cccc(N2CCN(c3cnnc4c(Cl)cccc34)CC2)c1Cl [Compound 1SRZ],< 4.70

# Same assay, conditions: Homo sapiens; scored relative to parent compound 2; 72 hours; read-out: Activity Score, inhibition of FOXC2-expressing HMLER cells by Formula II compounds
row,Structure (SMILES),pIC50
1,COc1ccc(NCc2cc3cc4c(cc3n(CC(=O)Nc3ccccc3)c2=O)OCCO4)cc1 [Compound 2AA],4.70 to 6.00
2,COc1cc2cc(CNc3ccc(C)cc3)c(=O)n(CC(=O)Nc3cc(C)ccc3C)c2cc1OC [Compound 2AB],4.70 to 6.00
3,COc1ccc2cc(CNc3ccc(C)cc3)c(=O)n(CC(=O)Nc3ccc(C)cc3C)c2c1 [Compound 2AC],4.70 to 6.00
4,CCc1ccccc1NC(=O)Cn1c(=O)c(CNc2ccccc2)cc2cc3c(cc21)OCCO3 [Compound 2AD],4.70 to 6.00
5,CCc1ccc(NC(=O)Cn2c(=O)c(CNc3ccccc3)cc3cc4c(cc32)OCCO4)cc1 [Compound 2AE],4.70 to 6.00
6,CCc1ccccc1NC(=O)Cn1c(=O)c(CNc2ccc(C)cc2)cc2cc3c(cc21)OCCO3 [Compound 2AF],4.70 to 6.00
7,CCOc1ccccc1NC(=O)Cn1c(=O)c(CNc2ccccc2)cc2ccc(OC)cc21 [Compound 2AG],4.70 to 6.00
8,COc1ccc2cc(CNc3ccc(C)cc3)c(=O)n(CC(=O)Nc3ccc(F)cc3)c2c1 [Compound 2AH],4.70 to 6.00
9,CCc1ccccc1NC(=O)Cn1c(=O)c(CNc2ccc(OC)cc2)cc2cc3c(cc21)OCCO3 [Compound 2AI],4.70 to 6.00
10,COc1ccc(NCc2cc3ccc(C)cc3n(CC(=O)Nc3ccccc3C)c2=O)cc1OC [Compound 2AJ],4.70 to 6.00
11,Cc1ccc(NCc2cc3cc4c(cc3n(CC(=O)Nc3ccccc3C)c2=O)OCCO4)cc1 [Compound 2AK],4.70 to 6.00
12,CCc1ccc(NCc2cc3cc4c(cc3n(CC(=O)Nc3ccc(OC)cc3)c2=O)OCCO4)cc1 [Compound 2AL],4.70 to 6.00
13,Cc1ccc(NCc2cc3cc4c(cc3n(CC(=O)Nc3c(C)cccc3C)c2=O)OCCO4)cc1 [Compound 2AM],4.70 to 6.00
14,CCc1ccc(NCc2cc3ccc(OC)cc3n(CC(=O)Nc3cc(C)ccc3C)c2=O)cc1 [Compound 2AN],4.70 to 6.00
15,CCc1ccc(NCc2cc3ccc(OC)cc3n(CC(=O)Nc3c(C)cc(C)cc3C)c2=O)cc1 [Compound 2AO],4.70 to 6.00
16,CCc1ccc(NCc2cc3ccc(OC)cc3n(CC(=O)Nc3ccccc3CC)c2=O)cc1 [Compound 2AP],4.70 to 6.00
17,CCOC(=O)c1ccc(NC(=O)Cn2c(=O)c(CNc3ccccc3)cc3ccc(OC)cc32)cc1 [Compound 2AQ],< 4.70
18,COc1ccc2cc(CNc3ccccc3)c(=O)n(CC(=O)NCc3ccc(Cl)cc3)c2c1 [Compound 2AR],< 4.70
19,CCc1ccc(NCc2cc3cc(OC)c(OC)cc3n(CC(=O)Nc3ccc(CC)cc3)c2=O)cc1 [Compound 2AS],< 4.70
20,COc1ccc(NCc2cc3ccc(OC)cc3n(CC(=O)Nc3ccccc3F)c2=O)cc1 [Compound 2AT],< 4.70
21,COc1ccc2cc(CNc3ccccc3)c(=O)n(CC(=O)NCc3ccccc3)c2c1 [Compound 2AU],< 4.70

row,Structure (SMILES),pIC50
1,COc1ccc(NCc2cc3ccc(OC)cc3n(CC(=O)Nc3ccc(C(C)C)cc3)c2=O)cc1 [Compound 2AV],< 4.70
2,COc1ccc2cc(CNc3ccc(OC)c(OC)c3)c(=O)n(CC(=O)Nc3ccccc3C)c2c1 [Compound 2AW],< 4.70
3,COc1ccc2cc(CNc3ccccc3)c(=O)n(CC(=O)NCCc3ccccc3)c2c1 [Compound 2AX],< 4.70
4,COc1ccc2cc(CNc3ccc(C)cc3)c(=O)n(CC(=O)Nc3ccc(C)cc3)c2c1 [Compound 2AY],< 4.70
5,COc1ccc(NCc2cc3ccc(OC)cc3n(CC(=O)Nc3ccccc3)c2=O)cc1 [Compound 2AZ],< 4.70
6,CCc1ccc(NCc2cc3cc4c(cc3n(CC(=O)Nc3c(C)cccc3C)c2=O)OCCO4)cc1 [Compound 2A],> 6.00
7,COc1ccc2cc(CNc3ccccc3)c(=O)n(CC(=O)Nc3ccc(C)cc3Cl)c2c1 [Compound 2BA],< 4.70
8,COc1cccc(CNC(=O)Cn2c(=O)c(CNc3ccccc3)cc3ccc(OC)cc32)c1 [Compound 2BB],< 4.70
9,COc1ccc2cc(CNc3ccccc3)c(=O)n(CC(=O)Nc3c(C)cc(C)cc3C)c2c1 [Compound 2BC],< 4.70
10,COc1ccc(NCc2cc3cc(OC)c(OC)cc3n(CC(=O)Nc3ccc(C)cc3)c2=O)cc1 [Compound 2BD],< 4.70
11,COc1ccc2c(c1)cc(CNc1ccc(OC)c(OC)c1)c(=O)n2CC(=O)Nc1ccccc1C [Compound 2BE],< 4.70
12,CC(=O)c1cccc(NC(=O)Cn2c(=O)c(CNc3ccc(C)cc3)cc3cc4c(cc32)OCCO4)c1 [Compound 2BF],< 4.70
13,CCOC(=O)c1cccc(NC(=O)Cn2c(=O)c(CNc3ccccc3)cc3ccc(OC)cc32)c1 [Compound 2BG],< 4.70
14,COc1ccc2cc(CNc3ccccc3)c(=O)n(CC(=O)Nc3ccc(F)cc3)c2c1 [Compound 2BH],< 4.70
15,COc1ccc(CNC(=O)Cn2c(=O)c(CNc3ccccc3)cc3ccc(OC)cc32)cc1 [Compound 2BI],< 4.70
16,COc1ccc2cc(CNc3ccc(C)cc3)c(=O)n(CC(=O)Nc3cc(C)cc(C)c3)c2c1 [Compound 2BJ],< 4.70
17,COc1ccc(NCc2cc3ccc(OC)cc3n(CC(=O)Nc3ccc(F)cc3)c2=O)cc1 [Compound 2BK],< 4.70
18,CCc1ccccc1NC(=O)Cn1c(=O)c(CNc2ccccc2)cc2ccc(OC)cc21 [Compound 2BL],< 4.70
19,COc1ccc(NCc2cc3ccc(C)cc3n(CC(=O)Nc3cccc(C)c3)c2=O)cc1OC [Compound 2BM],< 4.70
20,CCc1ccc(NC(=O)Cn2c(=O)c(CNc3ccccc3)cc3ccc(OC)cc32)cc1 [Compound 2BN],< 4.70
